Laboratory results reported in PubChem BioAssay AID2060601 (Molecular Pharmacology Branch, DTP, NCI, 2025).

Tested on: 874868-142-R-J2-PDC complex spheroids, growth % test/control
Assay: Anticancer human tumor 874868-142-R-J2-PDC patient-derived head and neck squamous carcinoma cell line growth inhibition [CLK]
Settings: for IC50: curve of first compound; for viability, T/C: stronger effect = lower value; active = viability on the fitted dose curve at most 10% of control; inactive = the rest
Outline: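 Multi-cell-type spheroids combined patient-derived tumor cells with HUVEC endothelial cells and human mesenchymal stem cells. Paired agents were dosed in half-log steps down from about clinical Cmax, or from 10 microM where Cmax was unknown.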

[1] = second compound 0.0316 µM, first compound 0.0316 µM
[2] = second compound 0.0316 µM, first compound 0.1 µM
[3] = second compound 0.0316 µM, first compound 0.316 µM
[4] = second compound 0.0316 µM, first compound 1 µM
[5] = second compound 0.0316 µM, first compound 3.16 µM
[6] = second compound 0.0316 µM, first compound 10 µM
[7] = second compound 0.1 µM, first compound 0.0316 µM
[8] = second compound 0.1 µM, first compound 0.1 µM
[9] = second compound 0.1 µM, first compound 0.316 µM
[10] = second compound 0.1 µM, first compound 1 µM
[11] = second compound 0.1 µM, first compound 3.16 µM
[12] = second compound 0.1 µM, first compound 10 µM
[13] = second compound 0.316 µM, first compound 0.0316 µM
[14] = second compound 0.316 µM, first compound 0.1 µM
[15] = second compound 0.316 µM, first compound 0.316 µM
[16] = second compound 0.316 µM, first compound 1 µM
[17] = second compound 0.316 µM, first compound 3.16 µM
[18] = second compound 0.316 µM, first compound 10 µM
[19] = second compound 1 µM, first compound 0.0316 µM
[20] = second compound 1 µM, first compound 0.1 µM
[21] = second compound 1 µM, first compound 0.316 µM
[22] = second compound 1 µM, first compound 1 µM
[23] = second compound 1 µM, first compound 3.16 µM
[24] = second compound 1 µM, first compound 10 µM
[25] = second compound 3.16 µM, first compound 0.0316 µM
[26] = second compound 3.16 µM, first compound 0.1 µM
[27] = second compound 3.16 µM, first compound 0.316 µM
[28] = second compound 3.16 µM, first compound 1 µM
[29] = second compound 3.16 µM, first compound 3.16 µM
[30] = second compound 3.16 µM, first compound 10 µM
[31] = second compound 10 µM, first compound 0.0316 µM
[32] = second compound 10 µM, first compound 0.1 µM
[33] = second compound 10 µM, first compound 0.316 µM
[34] = second compound 10 µM, first compound 1 µM
[35] = second compound 10 µM, first compound 3.16 µM
[36] = second compound 10 µM, first compound 10 µM
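Note: spheroids exposed to the compounds for 7 days.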
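Throughout, for viability, T/C: 100% = DMSO vehicle control viability.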

COc1ccc([C@@H](O)c2cc(-c3ncnc4cc(N5CCOCC5)ccc34)c(F)cc2Cl)nn1 + CNC(=O)c1ccc(Nc2nc(OC3CCCC3)c3c(-c4ccc5nc(C)oc5c4)c[nH]c3n2)c(OC)c1
inactive: viability, T/C [1] 106% | viability, T/C [2] 100% | viability, T/C [3] 101% | viability, T/C [4] 64.5% | viability, T/C [5] 47.6% | viability, T/C [6] 31.7% | viability, T/C [7] 81.5% | viability, T/C [8] 89.7% | viability, T/C [9] 73.7% | viability, T/C [10] 67.5% | viability, T/C [11] 52.6% | viability, T/C [12] 36.9% | viability, T/C [13] 52.7% | viability, T/C [14] 60% | viability, T/C [15] 55.6% | viability, T/C [16] 40.5% | viability, T/C [17] 40.3% | viability, T/C [18] 23.4% | viability, T/C [19] 43.5% | viability, T/C [20] 46.5% | viability, T/C [21] 40% | viability, T/C [22] 29.7% | viability, T/C [23] 25.1% | viability, T/C [24] 23.1% | viability, T/C [25] 37.6% | viability, T/C [26] 38.9% | viability, T/C [27] 45.2% | viability, T/C [28] 32.9% | viability, T/C [29] 37% | viability, T/C [30] 23.5% | viability, T/C [31] 40.4% | viability, T/C [32] 38.6% | viability, T/C [33] 39.2% | viability, T/C [34] 28.6% | viability, T/C [35] 32.3% | viability, T/C [36] 18.6%
3710 nM: IC50 (second compound 0.1 µM)
517 nM: IC50 (second compound 0.316 µM)
< 31.6 nM: IC50 (second compound 1 µM) | IC50 (second compound 3.16 µM) | IC50 (second compound 10 µM)
2250 nM: IC50 (second compound 0.0316 µM)

COc1cccc2c1C(=O)c1c(O)c3c(c(O)c1C2=O)CC(O)(C(=O)CO)CC3OC1CC(N)C(O)C(C)O1 (centres undefined) + CNC(=O)c1ccc(Nc2nc(OC3CCCC3)c3c(-c4ccc5nc(C)oc5c4)c[nH]c3n2)c(OC)c1
active: viability, T/C [4] 1.04% | viability, T/C [5] 0.15% | viability, T/C [6] 0.15% | viability, T/C [10] 0.86% | viability, T/C [11] 0.16% | viability, T/C [12] 3.76% | viability, T/C [16] 0.22% | viability, T/C [17] 0.17% | viability, T/C [18] 6.83% | viability, T/C [22] 0.21% | viability, T/C [23] 1.61% | viability, T/C [24] 0.16% | viability, T/C [28] 0.19% | viability, T/C [29] 1.44% | viability, T/C [30] 11.7% | viability, T/C [34] 0.27% | viability, T/C [35] 3.05% | viability, T/C [36] 5.77%
47.2 nM: IC50 (second compound 0.316 µM)
inactive: viability, T/C [1] 65.8% | viability, T/C [2] 40.8% | viability, T/C [3] 29.2% | viability, T/C [7] 66.7% | viability, T/C [8] 45.7% | viability, T/C [9] 23.5% | viability, T/C [13] 55.9% | viability, T/C [14] 38.6% | viability, T/C [15] 16.9% | viability, T/C [19] 32.1% | viability, T/C [20] 28.1% | viability, T/C [21] 17.6% | viability, T/C [25] 33.2% | viability, T/C [26] 27.8% | viability, T/C [27] 13.3% | viability, T/C [31] 28.5% | viability, T/C [32] 30.5% | viability, T/C [33] 15.8%
85.6 nM: IC50 (second compound 0.1 µM)
73.9 nM: IC50 (second compound 0.0316 µM)
< 31.6 nM: IC50 (second compound 1 µM) | IC50 (second compound 3.16 µM) | IC50 (second compound 10 µM)
